How the values were obtained:
[1] = molecular target: T1, hNav1.7 (Homo sapiens, UniProt Q15858); experiment: Nav1.7 potency, Patchliner automated patch clamp; type: cell-based; conditions: automated patchclamp
T1 construct: expressed in transfected cells
Procedure: (§1) The generation of a HEK 293F cell line stably expressing human Nav1.7/Navp1 was achieved by co-transfecting human SCN9A and human SCN1B cDNAs, subcloned into plasmid vectors, utilizing standard transfection techniques. Clones were selected using appropriate selection agents (0.3 mg/mL Zeocin and 0.8 mg/mL Geneticin) and maintained in Dulbecco's Modified Eagle medium, 10% fetal bovine serum, 1% non-essential amino acids to ˜80% confluence at 37° C. in a humidified incubator with 95% atmosphere and 5% CO2.
(§2) In some cases, the potency of compounds was measured using either the Patchliner automated patch clamp platform (Nanion) or manual patch clamp techniques. Both approaches allowed the compounds to be characterized based upon the ability of a compound to modulate use- and/or state-dependence. The potency data is tabulated in Table 3 and is represented by eight data fields. The first four fields represent potency data measured with the Patchliner automated platform under varying use- and state-dependent electrophysiology protocols similar to the Patch express protocols detailed above. The first data column describes the potency of compounds when the Nav1.7 channel is being repetitively activated at a 7 Hz hyperpolarization frequency (Table 3: hNav1.7: IC50 of inward current block at 7 Hz, Automated patchclamp). The second data column represents the potency at which 50% of the initial hyperpolarization pulse is inhibited by the compounds (Table 3: hNav1.7: IC50 of P1 block, Automated patchclamp). The third data column details the potency of compounds in their ability to block 50% of Nav1.7 channels when these channels are induced into the slow inactivated state (Table 3: hNav1.7: IC50 of slow inactivation block, Automated patchclamp). […] The next three data fields describe the data generated from manual patchclamp electrophysiology measurements using similar methods to those employed for automated patchclamp studies. […] The last column characterizes the state-dependence of compound inhibition. Compounds that maintain the greatest potency for the slow inactivated state over fast inactivated or tonic inhibition at 0.25 Hz are characterized as “state dependent, blocker of slow inactivation”.

[2] = molecular target: T2, human Nav1.7 (Homo sapiens, UniProt Q15858); experiment: Assessment of Nav1.7 activity on PatchXpress (voltage dependence / slow inactivation parameters); type: cell-based; conditions: compound at 10 μM, relative to 0.2% DMSO vehicle control; for hNav1.7: Reduction in current at 20 mV (normalized data) Delta Ratio: before/after 30 sec conditioning pulse at 20 mV; for hNav1.7: Shift in voltage dependence of inactivation (mV) Delta Vhalf: PatchXpress
T2 construct: expressed in transfected cells
T2 sequence (Q15858 whole entry): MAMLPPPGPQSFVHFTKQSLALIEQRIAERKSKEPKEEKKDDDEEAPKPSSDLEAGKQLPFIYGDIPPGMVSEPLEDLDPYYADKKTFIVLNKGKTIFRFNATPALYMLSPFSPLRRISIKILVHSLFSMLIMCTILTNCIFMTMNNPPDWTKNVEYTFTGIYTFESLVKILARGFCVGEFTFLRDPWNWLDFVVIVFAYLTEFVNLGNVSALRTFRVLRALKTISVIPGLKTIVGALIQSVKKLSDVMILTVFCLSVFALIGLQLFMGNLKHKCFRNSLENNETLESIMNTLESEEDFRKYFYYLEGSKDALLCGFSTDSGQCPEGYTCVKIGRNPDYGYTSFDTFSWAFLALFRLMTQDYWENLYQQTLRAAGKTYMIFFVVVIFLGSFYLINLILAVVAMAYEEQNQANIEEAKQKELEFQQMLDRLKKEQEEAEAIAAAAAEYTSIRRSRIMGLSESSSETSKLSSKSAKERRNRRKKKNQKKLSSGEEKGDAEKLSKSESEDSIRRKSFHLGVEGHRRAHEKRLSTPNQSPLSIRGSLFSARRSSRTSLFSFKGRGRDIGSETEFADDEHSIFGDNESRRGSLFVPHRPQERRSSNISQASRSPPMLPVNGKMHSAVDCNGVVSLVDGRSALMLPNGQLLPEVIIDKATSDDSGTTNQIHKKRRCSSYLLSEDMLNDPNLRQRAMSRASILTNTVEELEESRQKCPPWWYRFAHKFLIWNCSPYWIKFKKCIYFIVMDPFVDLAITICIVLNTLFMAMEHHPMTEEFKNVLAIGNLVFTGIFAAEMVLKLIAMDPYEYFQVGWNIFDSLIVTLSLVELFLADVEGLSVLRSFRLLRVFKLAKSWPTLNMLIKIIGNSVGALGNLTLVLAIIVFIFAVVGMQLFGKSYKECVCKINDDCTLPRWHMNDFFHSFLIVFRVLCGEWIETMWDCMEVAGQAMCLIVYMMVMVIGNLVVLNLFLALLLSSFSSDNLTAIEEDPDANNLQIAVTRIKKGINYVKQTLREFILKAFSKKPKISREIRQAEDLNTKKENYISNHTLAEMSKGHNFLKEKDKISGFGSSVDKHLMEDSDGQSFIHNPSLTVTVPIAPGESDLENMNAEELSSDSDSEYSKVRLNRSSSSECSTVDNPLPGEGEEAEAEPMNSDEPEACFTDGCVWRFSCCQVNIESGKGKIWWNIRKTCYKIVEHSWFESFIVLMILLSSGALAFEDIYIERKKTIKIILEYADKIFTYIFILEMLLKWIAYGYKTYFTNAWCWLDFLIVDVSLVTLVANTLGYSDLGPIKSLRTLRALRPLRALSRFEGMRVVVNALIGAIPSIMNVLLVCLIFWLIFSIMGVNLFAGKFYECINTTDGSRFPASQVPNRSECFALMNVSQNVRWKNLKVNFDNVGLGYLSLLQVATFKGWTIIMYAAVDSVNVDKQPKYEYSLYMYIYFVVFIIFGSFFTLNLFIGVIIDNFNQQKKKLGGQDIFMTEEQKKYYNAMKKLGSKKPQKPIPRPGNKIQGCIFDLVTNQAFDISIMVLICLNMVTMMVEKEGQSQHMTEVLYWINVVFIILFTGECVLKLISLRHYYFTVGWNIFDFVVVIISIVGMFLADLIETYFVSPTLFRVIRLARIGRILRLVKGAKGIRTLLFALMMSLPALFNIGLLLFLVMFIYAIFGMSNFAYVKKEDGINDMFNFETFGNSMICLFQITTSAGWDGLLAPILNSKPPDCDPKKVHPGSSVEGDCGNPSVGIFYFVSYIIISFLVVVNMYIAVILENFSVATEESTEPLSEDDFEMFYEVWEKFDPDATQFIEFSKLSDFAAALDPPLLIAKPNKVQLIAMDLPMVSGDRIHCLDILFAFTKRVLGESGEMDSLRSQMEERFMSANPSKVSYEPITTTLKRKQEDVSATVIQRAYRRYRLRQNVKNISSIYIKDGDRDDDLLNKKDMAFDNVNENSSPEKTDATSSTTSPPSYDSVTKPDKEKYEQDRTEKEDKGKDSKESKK
T2 sequence (Q07699 19-218 partner): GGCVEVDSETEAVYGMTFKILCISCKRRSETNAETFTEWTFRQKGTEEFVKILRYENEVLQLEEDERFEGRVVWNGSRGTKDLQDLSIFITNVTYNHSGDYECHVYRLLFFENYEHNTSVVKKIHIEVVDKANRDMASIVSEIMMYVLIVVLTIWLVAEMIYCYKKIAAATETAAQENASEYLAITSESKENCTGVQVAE
Summary of the method: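 HEK293F cells stably co-expressing hNav1.7 and β1 were recorded by automated patch clamp in TEA-based external solution (50 mM NaCl, pH 7.4) with CsF internal solution (pH 7.2). A variable conditioning prepulse inactivated channels, followed by a brief hyperpolarizing step and a depolarizing test pulse. Compounds at 10 μM were compared with 0.2% DMSO vehicle across four parameters.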

[3] = molecular target: T1, hNav1.7; experiment: Nav1.7 potency, manual patch clamp; type: cell-based; conditions: manual patchclamp
Procedure: as §1, §2

[4] = test system: male Sprague-Dawley rat; experiment: Formalin test in rats (automated flinch detection); type: in vivo; conditions: 100 mg/kg SC 1 hour prior to formalin
Procedure: The formalin test in rats was performed as previously described (McNamara, 2007. Proc. Natl. Acad. Sci., vol 104, page 13525) using an automated flinch-detecting system (T. Yaksh, University of California at San Diego, La Jolla, Calif.). On the day of testing, a small metal band (0.5 g) was loosely placed around the right hind paw of a male Sprague-Dawley rat (average weight, ˜250 g). The rats were allowed to acclimate to a Plexiglas chamber for at least 30 min before testing. Formalin was then injected (50 μl of 2.5% formalin, diluted in saline) into the dorsal surface of the right hind paw of the rat, and the animal was put into a chamber of the automated formalin apparatus where movement of the formalin-injected paw was recorded. The number of paw flinches per minute was tallied for the next 60 minutes. The time interval phases were defined as follows: Phase I (0-9 mins), Phase II (10-60 mins), Phase IIA (10-40 mins), and Phase IIB (41-60 mins). The following compounds were administered 1 hour prior to formalin administration. Compound 52 from Table 1 was administered by oral gavage in 4% DMSO, 10% Solutol, 86% H2O. Gabapentin was administered subcutaneously in 0.9% NaCl (aq).

[5] = initial pulse (P1), read-out: Nav1.7 IC50 P1 BLOCK (nM) (Automated Patchclamp)
[6] = slow inactivated state, read-out: Nav1.7 IC50 SLOW INACTIVATION BLOCK (nM) (Automated Patchclamp)
[7] = slow inactivated state, read-out: Nav1.7 IC50 SLOW INACTIVATION BLOCK (nM) (Manual Patchclamp)

T1 sequence (Q15858 whole entry): as the sequence (Q15858 whole entry) above
T1 sequence (Q07699 19-218 partner): as the sequence (Q07699 19-218 partner) above

| SMILES | IC50 [1, 5] [nM] | IC50 [1, 6] [nM] | hNav1.7: Reduction in current at 20 mV (normalized data) Delta Ratio [2] | hNav1.7: Voltage dependence of activation (mV) VDEP [2] [mV] | hNav1.7: Voltage dependence of fast inactivation (mV) VDEP [2] [mV] | hNav1.7: Shift in voltage dependence of inactivation (mV) Delta Vhalf [2] [mV] | IC50 [3, 7] [nM] | Phase 1 (paw flinches) ([4]; Phase I (0-9 mins)) | Total Phase 2 (paw flinches) ([4]; Phase II (10-60 mins)) | Phase 2a (paw flinches) ([4]; Phase IIA (10-40 mins)) | Phase 2b (paw flinches) ([4]; Phase IIB (41-60 mins)) | IC50 ([1]; 0.25 Hz, read-out: Nav1.7 IC50 INWARD CURRENT BLOCK (nM) (0.25 Hz, Automated Patchclamp)) | IC50 ([1]; 7 Hz, read-out: Nav1.7 IC50 INWARD CURRENT BLOCK (nM) (7 Hz, Automated Patchclamp)) | IC50 ([3]; 7 Hz, read-out: Nav1.7 IC50 INWARD CURRENT BLOCK (nM) (7 Hz, Manual Patchclamp)) |
| --- | --- | --- | --- | --- | --- | --- | --- | --- | --- | --- | --- | --- | --- | --- |
| CC(C)C[C@@H](N)C(=O)NC(COc1cc(C(F)(F)F)cc(C(F)(F)F)c1)c1ccccc1 (stereo partly drawn) [Compound 38, (2R)-2-amino-N-(2-(3,5-bis(trifluoromethyl)phenoxy)-1-phenylethyl)-4-methylpentanamide] | 10300 | 5320 | −0.34 | −11.5 | −15.3 | −33.7 | 436 | – | – | – | – | – | – | – |
| NCC1(CC(=O)O)CCCCC1 [Gabapentin] | – | – | – | – | – | – | – | 320 ± 58 | 562 ± 213 | 486 ± 202 | 77 ± 47 | – | – | – |
| N[C@@H](c1ccc(Cl)cc1)c1nc2cc(C(F)(F)F)cc(C(F)(F)F)c2[nH]1 [Compound 54, (S)-(4,6-bis(trifluoromethyl)-1H-benzo[d]imidazol-2-yl)(4-chlorophenyl)methanamine] | – | 2890 | −0.26 | −10 | −8.6 | −27.4 | 312 | – | – | – | – | – | – | – |
| CN[C@H](CC(C)C)C(=O)NCCOc1cc(F)cc(C(F)(F)F)c1 [Compound 16, (R)-N-(2-(3-fluoro-5-(trifluoromethyl)phenoxy)ethyl)-4-methyl-2-(methylamino)pentanamide] | – | 8120 | −0.11 | −2.80 | −2.60 | −14.70 | 3500 | – | – | – | – | 15000 | 9620 | 23200 |
| CC(C)C[C@@H](N)C(=O)N[C@@H](C)COc1cc(C(F)(F)F)cc(C(F)(F)F)c1 [Compound 1, (R)-2-amino-N-((S)-1-(3,5-bis(trifluoromethyl)phenoxy)propan-2-yl)-4-methylpentanamide] | 15500 | 2580 | −0.30 | −8.60 | −6.80 | −20.90 | 568 | – | – | – | – | – | – | – |

From US20170107203A1, “HETEROCYCLIC INHIBITORS OF THE SODIUM CHANNEL” (EPIRUS BIOPHARMACEUTICALS, INC., priority 2014, published 2017)
